What all share (format): functional, cell-based
One test relates to HeLa. Nature of the test: Cytotoxicity against Homo sapiens (human) HeLa cells by MTT assay.
For a further test, the system named is Erythrocyte. Nature of the test: Hemolytic activity in Homo sapiens (human) Erythrocyte after 30 min. To be noted: 0.5 h.
For another test, the system named is Vero. Nature of the test: Cytotoxicity against Chlorocebus aethiops (African green monkey) Vero cells by MTT assay. To be noted: Chlorocebus sabaeus.

In brackets after ≈: the same amount, converted by molar mass.

As for `CC[C@@]1(O)C(=O)OCc2c1cc1n(c2=O)Cc2cc3ccccc3nc2-1` [CAMPTOTHECIN], the IC50 in the test with HeLa turned out to be 0.28 µg/mL (≈ 0.804 µM); in the test on Vero, 58 µg/mL (≈ 166 µM). In the test on Erythrocyte, this compound gave an EC50 of 430 µg/mL (≈ 1230 µM).
On to `Cc1ccc2c3c([nH]c2c1)-c1nc2ccc(Cl)cc2c(-c2ccccc2)c1CC3`, for which the IC50 in the test with HeLa and with Vero was greater than 100 µg/mL in each case. In the test on Erythrocyte, this compound came in with an EC50 of 409 µg/mL (≈ 1030 µM).
Consider `Cc1cccc2c3c([nH]c12)-c1nc2ccc(Cl)cc2c(-c2ccccc2)c1CC3`, for which the IC50 with HeLa and in the test on Vero was greater than 100 µg/mL in each case. Moreover, the response with Erythrocyte was half-maximal at 458 µg/mL (≈ 1160 µM) (EC50).
As to `Cc1ccc2[nH]c3c(c2c1)CCc1c-3nc2ccc(Cl)cc2c1-c1ccccc1`, the IC50 in the test on HeLa and in the test on Vero was greater than 100 µg/mL in each case. The EC50 with Erythrocyte was 212 µg/mL (≈ 537 µM).

One may read the IC50 as the concentration that inhibits the measured activity by half. Lower therefore signals inhibition by little substance. In general, EC50 refers to the concentration that produces a half-maximal response.

Values taken from ChEMBL document CHEMBL3046074, “SnO2 nanoparticles mediated nontraditional synthesis of biologically active 9-chloro-6,13-dihydro-7-phenyl-5H-indolo [3,2-c]-acridine derivatives” (Med Chem Res, 2011).
